2 compounds from patent US4263301A, “β-Phenyl-β-hydroxyethylaminoalkyltheophyllines as inhibitors of biosynthesis of triglycerides” (Shell Oil Company, priority 1980, dated 1981) can be followed below.

For this assay, the system named is synthesis of triglycerides (enzyme from pig adipose tissue). Nature of the assay: Inhibition of triglyceride synthesis by enzyme preparation (homogenate supernatant) from pig adipose tissue, 14C-glycerol-3-phosphate incorporation. Format: biochemical. As to conditions: test compound 1000 micrograms per milliliter, 5% DMSO, incubated eight minutes at 37° C; compared to controls; average of two animals, three replicates each. The method, then:
The manner in which they cause this effect has not been established. Their effectiveness for this purpose has been ascertained by the following procedure.
An enzyme was prepared by homogenizing one gram of slices from pig adipose tissue, each slice being approximately 0.3 mm thick, in one-milliliter portions of a liquid medium (Liquid A). The homogenate then was centrifuged (10,000 g×15 minutes), and the supernatant phase (the enzyme) was poured through cheesecloth to remove fat that has risen to the top of the centrifuge tubes.
Liquid A had the following composition (in water):
0.15 M potassium chloride, 1 mM ethylenediaminetetracetic acid, 10 mM Hepes (N-2-hydroxyethylpiperazine-N'-2-ethanesulfonic acid), 1 mM DTT (dithiothreitol), pH=7.0.
A solution of the test compound (Liquid B) was prepared: 10 milligrams of test compound plus 0.5 milliliter dimethylsulfoxide (DMSO) plus 1.83 milliliters of glass-distilled water.
A premix (Liquid C) was freshly prepared before each test, from the following components. […]
0.25 milliliter of enzyme then was added. […] Ten milliliters of a 2:1 (v/v) mixture of toluene and Triton X-100 containing 0.27% New England Nuclear Omnifluor was added, and the radioactivity was determined in a liquid scintillation counter. […]
The percent inhibition by the test compound compared to the controls […] was determined.

In the case of `Cl.Cn1c(=O)c2c(ncn2CCNCC(O)c2cc(C(C)(C)C)c(O)c(C(C)(C)C)c2)n(C)c1=O` (centres unmarked) [7-(2-(2-(3,5-bis-(1,1-dimethylethyl)-4-hydroxyphenyl)-2-hydroxyethylamino)ethyl)-3,7-dihydro-1,3-dimethyl-1H-purine-2,6-dione, hydrochloride], the “Percent Inhibition” value is recorded as 95. Under `Cl.Cn1c(=O)c2c(ncn2CCCNCC(O)c2cc(C(C)(C)C)c(O)c(C(C)(C)C)c2)n(C)c1=O` (centres unmarked) [7-(3-(2-(3,5-bis-(1,1-dimethylethyl)-4-hydroxyphenyl)-2-hydroxyethylamino)propyl)-3,7-dihydro-1,3-dimethyl-1H-purine-2,6-dione, hydrochloride] stands 93.
